Melting point data for 91 molecules are collected here from a melting point compilation (Tetko et al.; mined from patent text by program, amines drawn as free bases though some values may be those of a salt).

One may read the melting point as the temperature of the solid-liquid transition. Turning to `Clc1ccc(C2Cc3cnc(Nc4ccc(CCN5CCCCC5)cc4)nc3-c3ccccc32)cc1Cl` (stereo unspecified), the melting point was 157 to 158 °C.

`O=c1[nH]c2c(F)cccc2o1`: the melting point lay within 131 to 133 °C. As to `O=C(O)COc1cccc(-c2ccccc2OC2OC(CO)C(O)C(O)C2O)c1` (stereo unspecified), the melting point fell in the range of 58 to 60 °C. For `CC(=O)Nc1ccc(NC(C)=O)c2c1C(=O)c1ccccc1C2=O`, the melting point lay in the range of 278 to 280 °C. Consider `COc1ccc(NCC(C)C#N)c([N+](=O)[O-])c1` (stereo unspecified), for which the melting point lay in the range of 114 to 115 °C. The molecule `COc1cc(O)cc2cc(-c3ccc(O)cc3)oc12` showed a melting point of 167 to 168 °C.

As for `CN(C)Cc1ccc([C@H]2CC[C@H](OC(=O)c3ccc(Cl)cc3)CC2)cc1`, the melting point was in the range of 94 to 95 °C.

Take `O=C(Nc1nc(C(F)(F)F)co1)C1c2ccc(F)cc2Oc2cc(F)ccc21`: the melting point is 265 °C. In turn, `O=C1CN(c2ccccc2)C(=O)N1C(=O)c1ccccc1Oc1ccccc1` displayed a melting point of 127 to 128 °C.

`COC(=O)c1ccccc1S(=O)(=O)Nn1c(C)nn(-c2nc(OC)cc(OC)n2)c1=O` had a melting point of 174 °C.

In turn, `CC(C(=O)c1ccc(F)cc1)N1CCC(O)(Cc2ccccc2)CC1` (stereo unspecified) registered a melting point of 120 °C. In the case of `O=C1c2ccccc2C(=O)c2oc(-c3cccc(F)c3)nc21` it was 230 °C. `CCCCN1C(=O)NC(=Cc2ccc(C(=O)OC)cc2)C1=O` yielded a melting point of 212 °C. In the case of `CC(C)(O)c1cc(OCc2ccccc2)cc(C(C)(C)O)c1` it was 146 to 147 °C. `Cc1oc(-c2ccccc2)nc1COc1ccc(CON=C(CCCCCCC(=O)O)c2ccccc2)cc1` yielded a melting point of 88 to 89 °C.

Molecule `N#CC(C=O)c1ccc(NS(=O)(=O)c2cccc(Cl)c2Cl)cc1` (stereo unspecified) registered a melting point of 88 to 102 °C. Consider `CCNC(=O)OC1CC(C)(C)N(OC(=O)NCC)C(C)(C)C1`, for which the melting point lay in the range of 149 to 151 °C. `Clc1cnc(Oc2cccc(Oc3ncc(Cl)cn3)c2)nc1` yielded a melting point of 120 °C. For the molecule `O=C(N[C@@H](Cc1c[nH]c2ccccc12)C(=O)O)c1ccc(Br)cc1`, the melting point lay in the range of 162 to 163 °C. `CCc1cn(Cc2ccccc2)c(=O)[nH]c1=O` registered a melting point of 154 to 155 °C. `O=C(N(CCN(C(=O)C(F)(F)F)c1cccc2[nH]ccc12)Cc1ccccc1)C(F)(F)F` yielded a melting point of 174 to 177 °C. Consider `CCc1ccc2c(c1)C(O)Cc1ccc(F)cc1S2` (stereo unspecified), for which the melting point was 97 °C.

`O=C(CCCOc1ccc2nc3[nH]c(=O)[nH]c3cc2c1)NC1CCCCC1` yielded a melting point of more than 320 °C. `O=C1c2ccccc2C(=O)c2cc(S(=O)(=O)O)ccc21` showed a melting point of 208 to 211 °C. `Cc1cc(-n2cnn(Cc3ccc(F)cc3)c2=O)sc1C(=O)NCc1cnn(C)c1`: the melting point is 168 to 170 °C. The molecule `O=S(=O)(c1ccc(F)cc1)c1ccc(SC2SCC(O)C(O)C2O)cc1` (stereo unspecified) returned a melting point of 136 to 138 °C. The molecule `Cc1c(C)c2c(c(C)c1O)C(C(=O)O)C(C)(C)O2` (stereo unspecified) returned a melting point of 161 to 164 °C. In turn, `O=c1oc2ccccc2c(O)c1C1CC(c2ccc(Oc3ccc(-c4ccc(Cl)cc4)cc3)cc2)Cc2ccccc21` (stereo unspecified) registered a melting point of 132 °C. `COCCc1nc2c(N)nc3cc(OCc4ccccc4)ccc3c2n1CC(C)(C)O` registered a melting point of 185 to 186 °C. As to `CCCCCCCCCCCCc1ccc(S(=O)(=O)Nc2nnc(CC(=O)OCC)s2)cc1`, the melting point is 108 to 109 °C. In turn, `Cc1cnc2c(c1)n(C(C)C)c(=O)n2-c1ccc(Oc2nc3cccnc3n2C)cc1` registered a melting point of 252 °C. In the case of `CC(C)(C)c1onc(NC(=O)C2CC2)c1Cl` it was 130 to 131 °C.

On to `O=C1OC(O)c2c(F)cccc21` (stereo unspecified), for which the melting point fell in the range of 97 to 100 °C. `CCCn1nc2c(N)nc3ccccc3c2c1CC(C)(C)NC(=O)C1CCCCC1` displayed a melting point of 190 to 191 °C. In the case of `Cc1nnc2n1-c1sc(Cc3ccccc3)cc1C(c1ccccc1Cl)=NC2` it was 161 to 163 °C. For the molecule `CCOC(=O)c1ccc(N2CCC(NCC(O)COc3ccc(N=Nc4ccc([N+](=O)[O-])cc4)nc3)CC2)nc1` (stereo unspecified), the melting point is 172 °C.

In turn, `COC(=O)c1cc2cc(OC)c(OC)cc2c(-c2ccnc(Cl)c2)n1` displayed a melting point of 246 to 247 °C.

`Cc1cc(C(C)N(O)C(N)=O)ccc1OC(C)c1ccccc1` (stereo unspecified) returned a melting point of 133 to 135 °C.

With `CCC1(CC)C(=O)N(C(C)(C)C)CC(C)(C)N1OC(C)(C)C#N`, the melting point was 68 to 71 °C. In the case of `NC1C=CC=CN1NS(=O)n1ccnc1` (stereo unspecified) it was 174 to 175 °C. Turning to `CCOC(=O)c1ccc(NCC(C)Oc2ccc(Cl)c3ccccc23)cc1` (stereo unspecified), the melting point came out at 122 °C.

Turning to `CN1Cc2c(C=O)ncn2-c2cccc(Cl)c2C1=O`, the melting point is 204 to 205 °C. `COC(=O)CN(C(=O)OC)C1CN(C(=O)Nc2ccc(C(F)(F)F)cc2)N=C1c1ccc(Cl)cc1` (stereo unspecified): the melting point fell in the range of 198 to 200 °C. As for `CCOC(=O)c1c2n(c3c(F)c(N4CCC(N(C)C)C4)c(F)cc3c1=O)C(C)S2` (stereo unspecified), the figure is 165 to 168 °C. As for `N=C(N)Nc1nc2cc(Cl)cc(Cl)c2[nH]1`, the figure is 264 to 265 °C; as for `CCCc1nc2c(N)nc3ccccc3c2n1CC1(O)CCCCC1`, 250 to 252 °C.

`C=CCC(O)(C(=O)c1ccccc1)c1ccccc1` (stereo unspecified) registered a melting point of 85 to 90 °C.

Take `O=C(NN=Cc1ccncc1)OCc1ccccc1`: the melting point stood at 134 °C.

`CCSc1ccc2nc(C(F)(F)F)c(S(N)(=O)=O)n2n1` came in with a melting point of 208 to 210 °C.

`CN1C(=O)COc2cccc3nc4c(c1c23)CCCC4`: the melting point was 176 to 178 °C. In turn, `CCCCC(C(=O)O)c1cccc(C(=O)c2cc3ccsc3s2)c1` (stereo unspecified) came in with a melting point of 131 °C. The molecule `OCc1cc(Cl)cc(CO)c1O` displayed a melting point of 161 to 163 °C. Molecule `c1ccc2c(c1)SCCCN2N=C1CCNCC1` displayed a melting point of 113 to 115 °C.

`CN(C)CC1CN(C)C(=S)c2cccnc2O1` (stereo unspecified) returned a melting point of 178 to 179 °C. In the case of `Cc1cc(C(N)=O)ncc1C(c1c(F)ccc(F)c1F)S(=O)(=O)CCC(F)(F)C(F)(F)F` (stereo unspecified) it was 155 to 156 °C; in that of `Brc1ccc2scc(Br)c2c1`, 95 to 97 °C. The molecule `COc1cc(Nc2nccc(-c3ccc(N4CCN(CCN)CC4)nc3)n2)cc(OC)c1OC` displayed a melting point of 88 to 89 °C. `COc1ccc(O)cc1CCc1ccc2nc[nH]c(=O)c2c1` yielded a melting point of 221 to 224 °C. On to `CC(N)(C(=O)O)c1ccc(NC=C2C(=O)NC(=O)c3ccc(Br)cc32)cc1` (stereo unspecified), for which the melting point was in the range of 250 to 253 °C. `Cc1ccc(-c2cc(C(O)/C=C/c3ccc(C(=O)O)cc3)cc3c2C(C)(C)CCC3(C)C)cc1` (stereo unspecified) yielded a melting point of 179 °C. As for `O=S1(=O)c2ccc(O)cc2Oc2cc(F)ccc21`, the figure is 258 to 260 °C; as for `COC(=O)c1ccc(C(=O)C=CN(C)C)cc1Cl`, 92 to 96 °C; as for `N#CC1(Cc2nnn[nH]2)C2CCCC1CCC2` (stereo unspecified), 189 to 191 °C.

The molecule `N#Cc1c(C(N)=O)c2n(c1C1CC1)CCN(S(=O)(=O)c1ccc(C(F)(F)F)cc1)C2` had a melting point of 253 to 256 °C.

Consider `CCc1noc(-c2ncn(-c3cccnc3)c2C)n1`, for which the melting point is 127 to 128 °C.

`COC(=O)c1cc(-c2ccc(OC)c(Cl)c2)nn(CC(C)C)c1=O` returned a melting point of 108 to 109 °C.

Take `CCc1cnc(C2=NC(C)(C(C)C)C(=O)N2)c(C(=O)NCCCC(=O)O)c1` (stereo unspecified): the melting point lay within 165 to 167 °C. Turning to `Nc1ncccc1OCc1cccc(Cl)c1F`, the melting point lay within 98 to 100 °C. Consider `CCOc1ccc(S(=O)(=O)N2CCN(CC)CC2)cc1C#N`, for which the melting point was in the range of 86 to 88 °C. `Cc1nn(C)c(O)c1C(=O)c1c(Cl)cccc1Cl` yielded a melting point of 250 °C. `O=S(=O)(c1ccc2c(c1)OC(c1ccccc1)(c1ccccc1)O2)N1CCCCC1` came in with a melting point of 163 to 164 °C.

Consider `CNC(=O)c1cc(-c2ccc(SC)cc2)nn(CC2CC2)c1=O`, for which the melting point lay within 116 to 118 °C. As to `c1ccc2c(NCC3CCCCC3)c3cnn(C4CCCC4)c3nc2c1`, the melting point was 290 to 292 °C.

In turn, `CCOC(=O)c1nc2c(=O)[nH]c3cc(C(F)(F)F)ccc3n2c1P(=O)(OCC)OCC` showed a melting point of 198 to 199 °C. `OCCOc1ccccc1-c1ccccc1` yielded a melting point of 71 to 75 °C.

In turn, `BrCCCSc1ccc2ncnn2n1` returned a melting point of 133 to 135 °C. Molecule `CCOP(=O)(Cc1cc(=O)[nH]c2cc(I)ccc12)OCC` showed a melting point of 196 to 198 °C.

`C=Cc1cn(-c2c(Cl)cc(C(F)(F)F)cc2Cl)nc1C(F)(F)F` registered a melting point of 95 to 98 °C. Regarding `Cc1c(C#N)ncn1-c1cccc(Cl)c1`, the melting point lay in the range of 117 to 118 °C. Turning to `COc1ccc2c(O)c(CO)cnc2c1`, the melting point lay within 291 to 297 °C. The molecule `COc1cc(C=CC=O)ccc1OC(C)c1nc(-c2ccccc2)oc1C` (stereo unspecified) had a melting point of 152 to 153 °C.

The molecule `CN(c1cccc2cc(C3=NCC(CN4CCS(=O)CC4)S3)[nH]c12)S(=O)(=O)c1cccs1` (stereo unspecified) came in with a melting point of 204 °C. Take `CC(=O)Nc1ccc(C=Nc2cc(Cl)c(N=CN(C)C)c(Cl)c2)cc1`: the melting point lay in the range of 171 to 173 °C. Consider `O=C(O)c1ccc(S(=O)(=O)n2c(=O)[nH]c3cc(Cl)ccc3c2=O)cc1`, for which the melting point was more than 200 °C. `CCOCc1nc2c(N)nc(C)c(C)c2n1CCC1CCN(C(=O)C(C)C)CC1` gave a melting point of 168 to 169 °C.

Take `Fc1ccc2[nH]c3c4c(Cl)cccc4nc-3cc2c1`: the melting point lay within 201 to 204 °C. For `O=C1CCC(c2ccc(OCCCN3C(=O)c4ccccc4C3=O)c(Cl)c2)=NN1`, the melting point was in the range of 230 to 232 °C.

As to `CCCOCCOc1ccc(-c2ccc3c(c2)C=C(C(=O)Nc2ccc(CN(C)C4CCOCC4)cc2)CCS3(=O)=O)cc1Cl`, the melting point fell in the range of 183 to 184 °C. `NCCOCC(P(=O)(O)O)P(=O)(O)O` registered a melting point of more than 300 °C. As for `Cc1cc2c(s1)Oc1ccccc1N=C2N1CCN(CCO)CC1`, the figure is 87 to 89 °C; as for `O=S(=O)(Nc1ccc2c(OCc3ccc(-c4ccc(Cl)cc4)cc3F)cccc2c1)C(F)(F)F`, 151 to 153 °C.
